Measurements as given in ChEMBL document CHEMBL4041466, “Synthesis and evaluation of new benzodioxole-based dithiocarbamate derivatives as potential anticancer agents and hCA-I and hCA-II inhibitors” (Eur J Med Chem, 2017).
≈ marks a conversion by molar mass, not a printed value.

Tests used:
C6 = assay: Antiproliferative activity against rat C6 cells after 24 hrs by MTT assay; settings: C6, 24 h
A549 = assay: Antiproliferative activity against human A549 cells after 24 hrs by MTT assay; settings: A549, 24 h

| Structure (SMILES) | IC50 (A549) [µg/mL] | IC50 (C6) [µg/mL] |
| --- | --- | --- |
| O=C(CSC(=S)NN1CCN(c2ccc([N+](=O)[O-])cc2)CC1)NCc1ccc2c(c1)OCO2 | > 1000 | 23.3 (≈ 47.7 µM) |
| CN1CCN(NC(=S)SCC(=O)NCc2ccc3c(c2)OCO3)CC1 | > 1000 | 167 (≈ 436 µM) |
| O=C(CSC(=S)NN1CCN(c2ncccn2)CC1)NCc1ccc2c(c1)OCO2 | 833 (≈ 1870 µM) | 48.3 (≈ 108 µM) |
| COc1ccc(N2CCN(NC(=S)SCC(=O)NCc3ccc4c(c3)OCO4)CC2)cc1 | > 1000 | 58.3 (≈ 123 µM) |
| O=C(CSC(=S)NN1CCN(c2ccccc2)CC1)NCc1ccc2c(c1)OCO2 | > 1000 | 163 (≈ 367 µM) |
| CC1CCN(NC(=S)SCC(=O)NCc2ccc3c(c2)OCO3)CC1 | 810 (≈ 2120 µM) | 567 (≈ 1490 µM) |

Further lines, with some results ahead:

| IC50 (A549) [µg/mL] | Structure (SMILES) | IC50 (C6) [µg/mL] |
| --- | --- | --- |
| 850 (≈ 2140 µM) | CCN1CCN(NC(=S)SCC(=O)NCc2ccc3c(c2)OCO3)CC1 | 157 (≈ 395 µM) |
| 700 (≈ 1890 µM) | O=C(CSC(=S)NN1CCOCC1)NCc1ccc2c(c1)OCO2 | 207 (≈ 559 µM) |
| > 1000 | O=C(CSC(=S)NN1CCSCC1)NCc1ccc2c(c1)OCO2 | 220 (≈ 571 µM) |
| 875 (≈ 2380 µM) | O=C(CSC(=S)NN1CCCCC1)NCc1ccc2c(c1)OCO2 | 633 (≈ 1720 µM) |
